Assay results from patent US20200071667A1, “COMPOSITION COMPRISING GLYCYRRHIZIN FOR INDUCING DIFFERENTIATION INTO MYELOID-DERIVED SUPPRESSOR CELL FROM MYELOID CELL” (Konkuk University Glocal Industry-Academic Collabo, priority 2018, published 2020).

What was measured:
[1] = tested on: myeloid cells having a phenotype of CD31+; experiment: Myeloid cell proliferation after glycyrrhizin treatment without LPS stimulation; format: cell-based, mouse; details: 100, 200 or 300 μg/ml; cultured 48 hours; without stimulation by LPS
Experimental: It was examined whether myeloid cells are capable of proliferating even when treated with glycyrrhizin alone without stimulation of the myeloid cells with LPS.
Specifically, myeloid cells having a phenotype of CD31+ were isolated from mouse myeloid cells obtained in the same manner as in Example 2-2. The myeloid cells were treated with glycyrrhizin at a concentration of 100 μg/ml, 200 μg/ml, or 300 μg/ml, and then cultured for 48 hours. As a control, the myeloid cells were treated with 0.1 ml of PBS. Subsequently, the expression level of myeloid cells was examined by the same flow cytometric analysis as that used in Example <2-1>.

mouse myeloid cells = experiment: Differentiation into CD11b+Gr1 myeloid cells by glycyrrhizin concentration and culture time, flow cytometric analysis; format: cell-based; details: for expression level of CD11b+Gr1 myeloid cells: 300 μg/ml
Experimental: Flow cytometric analysis was performed to determine whether the concentration of glycyrrhizin with which myeloid cells were treated or culture time affects differentiation into CD11b+Gr1 myeloid cells from myeloid cells.
Specifically, mouse myeloid cells were obtained in the same manner as in Example <2-2>, treated with glycyrrhizin at a concentration of 100 μg/ml, 200 μg/ml, or 300 μg/ml, and then cultured for 24 hours or 48 hours. As a control, the myeloid cells were treated with 0.1 ml of PBS. Subsequently, the expression level of the myeloid cells was examined by the same flow cytometric analysis as that used in Example <2-1>.

iNOS = iNOS measurement by RT-PCR in glycyrrhizin-treated myeloid cells; format: cell-based, mouse; details: 100, 200 or 300 μg/ml, cultured 48 hours, vs negative control
Experimental: Specifically, myeloid cells were isolated from mice of the control of Example 1, treated with glycyrrhizin at a concentration of 100 μg/ml, 200 μg/ml, or 300 μg/ml, and then cultured for 48 hours. Thereafter, RT-PCR was performed. As a negative control, the myeloid cells were treated with 0.1 ml of PBS, and GAPDH was used as an expression control.

T cells = experiment: T cell activity measurement by CFSE analysis with glycyrrhizin-induced CD11b+Gr1 myeloid cells as stimulator cells; format: cell-based, mouse; details: stimulator cells from 300 μg/ml glycyrrhizin, 48 hours; responder:stimulator 1:1, 1:2, 1:4; 3 days
Experimental: Specifically, mouse myeloid cells were obtained in the same manner as in Example <2-2>, treated with 300 μg/ml of glycyrrhizin, and then cultured for 48 hours. Subsequently, CD11b+Gr1 myeloid cells induced to be differentiated were stained and separated with FACSAria to be used as stimulator cells, and for responder cells, T cells were isolated with FACSAria from splenocytes of mice of the control of Example 1 and stained with CFSE. The responder cells and the stimulator cells were treated with CD3 and CD28, which induce the activity of T cells, at a ratio of 1:1, 1:2, or 1:4 and further cultured for 3 days.

CC1(C)[C@@H](O[C@H]2O[C@H](C(=O)O)[C@@H](O)[C@H](O)[C@H]2O[C@@H]2O[C@H](C(=O)O)[C@@H](O)[C@H](O)[C@H]2O)CC[C@]2(C)[C@H]3C(=O)C=C4[C@@H]5C[C@@](C)(C(=O)O)CC[C@]5(C)CC[C@@]4(C)[C@]3(C)CC[C@@H]12 [glycyrrhizin, ammonium glycyrrhizinate]
proliferation of the myeloid cells [1]: increased in a manner dependent upon the concentration of glycyrrhizin
expression level of CD11b+Gr1 myeloid cells (mouse myeloid cells; cultured 24 hours (control 9.10%)): 29.5%
expression level of CD11b+Gr1 myeloid cells (mouse myeloid cells; cultured 48 hours (control 10.8%)): 53.1%
expression level of CD11b+Gr1 myeloid cells, concentration dependence (mouse myeloid cells; 100, 200 or 300 μg/ml, cultured 24 hours): increased in a concentration-dependent manner
expression level of iNOS (iNOS): increased in a concentration-dependent manner
activity of T cells (T cells): the higher the proportion of the stimulator cells (CD11b+Gr1 myeloid cells), the lower the activity of T cells
